The results in this text go back to patent publication US20090062294A1, “HETEROARYL-SUBSTITUTED UREA MODULATORS OF FATTY ACID AMIDE HYDROLASE” (priority 2007, published 2009).

One test concerns the target T1, FAAH (Homo sapiens, UniProt O00519).
T1 sequence (O00519 1-579): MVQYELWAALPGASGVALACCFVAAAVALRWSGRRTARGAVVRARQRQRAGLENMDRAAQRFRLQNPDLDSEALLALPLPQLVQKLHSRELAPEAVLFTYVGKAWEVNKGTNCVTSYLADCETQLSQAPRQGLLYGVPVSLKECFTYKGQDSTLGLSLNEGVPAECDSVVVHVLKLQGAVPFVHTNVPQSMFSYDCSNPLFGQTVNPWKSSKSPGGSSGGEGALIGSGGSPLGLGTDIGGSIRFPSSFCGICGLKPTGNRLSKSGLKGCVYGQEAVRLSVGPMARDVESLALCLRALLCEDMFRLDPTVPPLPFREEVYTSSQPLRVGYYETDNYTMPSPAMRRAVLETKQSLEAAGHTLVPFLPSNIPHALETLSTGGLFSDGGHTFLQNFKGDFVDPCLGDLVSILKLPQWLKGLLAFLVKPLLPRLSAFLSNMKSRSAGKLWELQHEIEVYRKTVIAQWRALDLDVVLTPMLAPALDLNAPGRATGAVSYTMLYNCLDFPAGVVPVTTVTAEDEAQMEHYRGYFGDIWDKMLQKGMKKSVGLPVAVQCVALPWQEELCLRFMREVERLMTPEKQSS
Briefly: Assay Method 1: FAAH assay, 3H-anandamide hydrolysis in homogenate of T84 cells or SK-N-MC cells transfected with human FAAH. Conditions: average of results, > = solubility limit or highest concentration tested. Format: biochemical. The method, boiled down:
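Hydrolysis of ^3H-anandamide (80 nM final, added last) was measured over 1 h at rt, using test compound with homogenate of T84 cells or human FAAH-transfected SK-N-MC cells. The homogenization buffer was 125 mM Tris, 1 mM EDTA, 0.02% Triton X-100, pH 9. Unbound labelled ethanolamine was passed through charcoal filters and scintillation-counted.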

Another test addresses T2, rat FAAH (Rattus norvegicus, UniProt P97612).
T2 sequence (P97612 1-579): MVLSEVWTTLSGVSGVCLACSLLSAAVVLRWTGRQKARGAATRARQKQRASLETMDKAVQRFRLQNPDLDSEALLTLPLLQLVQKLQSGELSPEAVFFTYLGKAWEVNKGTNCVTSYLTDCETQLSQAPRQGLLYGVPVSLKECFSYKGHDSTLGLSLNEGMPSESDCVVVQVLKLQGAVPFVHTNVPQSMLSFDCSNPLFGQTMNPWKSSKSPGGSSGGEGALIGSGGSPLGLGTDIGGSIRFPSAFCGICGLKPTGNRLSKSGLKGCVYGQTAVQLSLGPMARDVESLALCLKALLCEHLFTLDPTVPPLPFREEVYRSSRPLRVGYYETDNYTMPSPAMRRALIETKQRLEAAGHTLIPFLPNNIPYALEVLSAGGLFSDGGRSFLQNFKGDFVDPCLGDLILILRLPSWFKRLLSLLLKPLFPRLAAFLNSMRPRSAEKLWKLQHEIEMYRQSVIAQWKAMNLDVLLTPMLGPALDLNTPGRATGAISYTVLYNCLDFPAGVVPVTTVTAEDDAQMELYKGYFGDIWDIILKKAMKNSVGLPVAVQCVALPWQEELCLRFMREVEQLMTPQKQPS
Briefly: Assay Method 2: FAAH assay, 3H-anandamide hydrolysis in homogenate of SK-N-MC cells transfected with rat FAAH. Format: biochemical. Conditions: average of results, > = solubility limit or highest concentration tested. The method, boiled down:
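Read-out is scintillation counting of [3H]-ethanolamine passing through activated charcoal, after 1 h at rt with 80 nM final [3H]-AEA. Enzyme source: lysate of G418-selected SK-N-MC clones expressing rat FAAH, homogenized in Tris/EDTA/glycerol/0.02% Triton buffer, pH 9.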

pIC50: −log10 of the molar value. Where a name gives a salt, the structure may show the parent alone.

The term pIC50 denotes the negative decadic logarithm of the IC50, by convention in mol/L. A low value points to a high IC50. Regarding `O=C(Nc1noc2ccccc12)N1CCN(Cc2cccc(C#Cc3ccccc3OC(F)(F)F)c2)CC1` [Example 82, N-1,2-Benzisoxazol-3-yl-4-(3-{[2-(trifluoromethoxy)phenyl]-ethynyl}benzyl)-piperazine-1-carboxamide], the pIC50 was 6.57 against FAAH and 6.59 at rat FAAH.

Turning to `O=C(Nc1noc2ccccc12)N1CCN(Cc2cccc(C#Cc3cc(Cl)cc(Cl)c3)c2)CC1` [Example 83, N-1,2-Benzisoxazol-3-yl-4-{3-[(3,5-dichlorophenyl)ethynyl]benzyl}-piperazine-1-carboxamide], the negative-log IC50 (pIC50) at FAAH is 7.46; against rat FAAH, 7.70.

On to `O=C(Nc1noc2ccccc12)N1CCN(Cc2cccc(C#Cc3cc(Cl)ccc3Cl)c2)CC1` [Example 84, N-1,2-Benzisoxazol-3-yl-4-{3-[(2,5-dichlorophenyl)ethynyl]benzyl}-piperazine-1-carboxamide], for which the pIC50 at FAAH is 7.80; at rat FAAH it was 6.53.

Regarding `N#Cc1ccccc1C#Cc1cccc(CN2CCN(C(=O)Nc3noc4ccccc34)CC2)c1` [Example 85, N-1,2-Benzisoxazol-3-yl-4-{3-[(2-cyanophenyl)ethynyl]benzyl}-piperazine-1-carboxamide], the values for the pIC50 on FAAH and on rat FAAH were 7.74 and 7.64, respectively.

With `O=C(Nc1noc2ccccc12)N1CCN(Cc2cccc(C#Cc3cccc4ccccc34)c2)CC1` [Example 86, N-1,2-Benzisoxazol-3-yl-4-[3-(naphthalen-1-ylethynyl)benzyl]piperazine-1-carboxamide], the values for the negative-log IC50 (pIC50) at FAAH and on rat FAAH were 5.52 and 6.24, respectively.

Consider `COC(=O)c1ccccc1C#Cc1cccc(CN2CCN(C(=O)Nc3noc4ccccc34)CC2)c1` [Example 87, Methyl 2-[(3-{[4-(1,2-benzisoxazol-3-ylcarbamoyl)piperazin-1-yl]methyl}phenyl)ethynyl]benzoate], for which the results for the negative logarithm of the IC50 (pIC50) at FAAH and at rat FAAH were 5.70 and 6.32, respectively.

Take `N#Cc1cccc(C#Cc2cccc(CN3CCN(C(=O)Nc4noc5ccccc45)CC3)c2)c1` [Example 88, N-1,2-Benzisoxazol-3-yl-4-{3-[(3-cyanophenyl)ethynyl]benzyl}piperazine-1-carboxamide]: the pIC50 against FAAH was 7.82; against rat FAAH, 7.19.

Take `O=C(Nc1noc2ccccc12)N1CCN(Cc2cccc(C#Cc3ccc4c(c3)OCO4)c2)CC1` [Example 89, N-1,2-Benzisoxazol-3-yl-4-[3-(1,3-benzodioxol-5-ylethynyl)benzyl]-piperazine-1-carboxamide]: the values for the pIC50 against FAAH and on rat FAAH were 6.19 and 6.26, respectively.

For `O=C(Nc1noc2ccccc12)N1CCN(Cc2cccc(C#Cc3cccc(Cl)c3Cl)c2)CC1` [Example 90, N-1,2-Benzisoxazol-3-yl-4-{3-[(2,3-dichlorophenyl)ethynyl]benzyl}-piperazine-1-carboxamide], the negative-log IC50 (pIC50) against FAAH is 6.71; against rat FAAH it was 6.09.

As for `N#Cc1c(F)cccc1C#Cc1cccc(CN2CCN(C(=O)Nc3noc4ccccc34)CC2)c1` [Example 91, N-1,2-Benzisoxazol-3-yl-4-{3-[(2-cyano-3-fluorophenyl)ethynyl]-benzyl}piperazine-1-carboxamide], the pIC50 against FAAH was 7.52; against rat FAAH it was 7.68.

For the molecule `N#CCc1ccccc1C#Cc1cccc(CN2CCN(C(=O)Nc3noc4ccccc34)CC2)c1` [Example 92, N-1,2-Benzisoxazol-3-yl-4-(3-{[2-(cyanomethyl)phenyl]ethynyl}-benzyl)piperazine-1-carboxamide], the pIC50 is 7.57 at FAAH and 6.58 against rat FAAH.

For the molecule `COC(=O)Cc1ccccc1C#Cc1cccc(CN2CCN(C(=O)Nc3noc4ccccc34)CC2)c1` [Example 93, Methyl {2-[(3-{[4-(1,2-benzisoxazol-3-ylcarbamoyl)piperazin-1-yl]methyl}phenyl)ethynyl]phenyl}acetate], the pIC50 is 6.99 against FAAH and 6.65 on rat FAAH.

On to `Cc1ccccc1CCc1cccc(CN2CCN(C(=O)Nc3noc4ccccc34)CC2)c1` [Example 94, 4-[3-(2-o-Tolyl-ethyl)-benzyl]-piperazine-1-carboxylic acid benzo[d]isoxazol-3-ylamide hydrochloride salt], for which the figures for the pIC50 at FAAH and on rat FAAH were 6.42 and 6.20, respectively.

In the case of `O=C(Nc1noc2ccccc12)N1CCN(Cc2cccc(Oc3ccccn3)c2)CC1` [Example 96, N-1,2-Benzisoxazol-3-yl-4-[3-(pyridin-2-yloxy)benzyl]piperazine-1-carboxamide], the pIC50 at FAAH is 6.70; against rat FAAH, 5.96.

On to `O=C(Nc1noc2ccccc12)N1CCN(Cc2cccc(Oc3cnccn3)c2)CC1` [Example 97, N-1,2-Benzisoxazol-3-yl-4-[3-(pyrazin-2-yloxy)benzyl]piperazine-1-carboxamide], for which the pIC50 at FAAH is 6.57; at rat FAAH, 5.30.

Take `N#Cc1ccccc1COc1cccc(CN2CCN(C(=O)Nc3noc4ccccc34)CC2)c1` [Example 98, 4-[3-(2-Cyano-benzyloxy)-benzyl]-piperazine-1-carboxylic acid benzo[d]isoxazol-3-ylamide]: the pIC50 against FAAH is 7.66; against rat FAAH, 6.52.

`O=C(Nc1noc2ccccc12)N1CCN(Cc2cccc(OCc3ccccc3)c2)CC1` [Example 99, N-1,2-Benzisoxazol-3-yl-4-[3-(benzyloxy)benzyl]piperazine-1-carboxamide]: the pIC50 was 7.80 at FAAH and 6.59 on rat FAAH.

As to `O=C(Nc1noc2ccccc12)N1CCN(Cc2ccc3nc[nH]c3c2)CC1` [Example 100, 4-(1H-Benzimidazol-6-ylmethyl)-N-1,2-benzisoxazol-3-ylpiperazine-1-carboxamide], the pIC50 on FAAH and at rat FAAH was less than 5.00 in each case.

With `CS(=O)(=O)c1ccc(CN2CCN(C(=O)Nc3noc4ccccc34)CC2)cc1` [Example 102, N-1,2-Benzisoxazol-3-yl-4-[4-(methylsulfonyl)benzyl]piperazine-1-carboxamide], the pIC50 at FAAH and against rat FAAH was less than 5.00 each time.

Consider `O=C(Nc1noc2ccccc12)N1CCN(Cc2ccc(OC(F)(F)F)cc2)CC1` [Example 103, N-1,2-Benzisoxazol-3-yl-4-[4-(trifluoromethoxy)benzyl]piperazine-1-carboxamide], for which the values for the pIC50 against FAAH and against rat FAAH were 6.92 and 6.96, respectively.

As for `COc1ccc(NC(=O)N2CCN(Cc3cccc(Oc4ccc(Cl)cc4)c3)CC2)nn1` [Example 104, 4-[3-(4-Chlorophenoxy)benzyl]-N-(6-methoxypyridazin-3-yl)piperazine-1-carboxamide], the results for the pIC50 against FAAH and at rat FAAH were 7.43 and 6.16, respectively.

`O=C(Nc1noc2ccccc12)N1CCN(Cc2ccc(Cl)c(OC(F)(F)F)c2)CC1` [Example 105, N-1,2-Benzisoxazol-3-yl-4-[4-chloro-3-(trifluoromethoxy)benzyl]-piperazine-1-carboxamide]: the pIC50 against FAAH was 7.00; against rat FAAH, 7.89.

`O=C(Nc1noc2ccccc12)N1CCN(Cc2ccc(F)c(OC(F)(F)F)c2)CC1` [Example 106, N-1,2-Benzisoxazol-3-yl-4-[4-fluoro-3-(trifluoromethoxy)benzyl]-piperazine-1-carboxamide]: the pIC50 against FAAH is 7.10; against rat FAAH it was 7.57.
